Test results taken from PMC6858373 (Scientific Reports, 2019).
Counter-ions that a name gives are not always drawn. Like-named read-outs stand apart in the source and are kept apart here.

Legend:
[1] = target: T1, FGF14:Nav1.6 C-tail complex (Homo sapiens, UniProt Q92915+Q9UQD0); assay: Split-luciferase complementation assay (LCA) in Clone V double stable HEK293 cells; type: cell-based; conditions: CC_NCI screening; for Split Luciferase Assay % Lum Set 1 / Split Luciferase Assay %Lum Set 2: LCA luminescence, normalized to on-plate 0.3% DMSO controls (n=16 per plate); for Split Luciferase Assay % Lum Set 1 / Split Luciferase Assay Z-score Set 1: biological replicate Set 1; for Split Luciferase Assay %Lum Set 2 / Split Luciferase Assay Z-score Set 2: biological replicate Set 2; for Split Luciferase Assay Z-score Set 1 / Split Luciferase Assay Z-score Set 2: LCA, normalized to on-plate 0.3% DMSO controls; for Split Luciferase Assay %Lum Avg: average of Set 1 and Set 2, normalized to 0.3% DMSO controls
T1 construct: polymerase chain reaction (PCR) amplification of the FGF14 open reading frame (nt 1–855); C-terminal fragment of Nav1.6 (amino acids 1763–1976) fused with CD4ΔC-tail (amino acids 1–395); expressed in transfected cells
T1 sequence (Q92915 1-252 isoform Q92915-2): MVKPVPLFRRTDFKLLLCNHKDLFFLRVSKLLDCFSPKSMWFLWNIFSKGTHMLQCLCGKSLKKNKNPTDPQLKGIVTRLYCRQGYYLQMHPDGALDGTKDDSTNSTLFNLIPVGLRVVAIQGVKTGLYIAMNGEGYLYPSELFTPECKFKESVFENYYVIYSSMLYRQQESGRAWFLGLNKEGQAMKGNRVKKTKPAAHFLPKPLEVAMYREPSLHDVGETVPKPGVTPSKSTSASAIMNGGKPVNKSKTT
T1 sequence (Q9UQD0 1763-1976 limits assumed): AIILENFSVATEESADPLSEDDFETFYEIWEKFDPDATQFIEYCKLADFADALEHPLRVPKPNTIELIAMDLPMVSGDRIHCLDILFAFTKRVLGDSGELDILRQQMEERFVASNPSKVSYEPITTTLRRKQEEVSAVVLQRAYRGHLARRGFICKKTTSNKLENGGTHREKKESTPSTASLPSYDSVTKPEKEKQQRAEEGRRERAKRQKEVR

Clone V cells [2] = conditions: human, 16 h, 30 µM
Clone V cells [3] = assay: CellTiter Blue (CTB) cell viability counter-screen; conditions: for Toxicity Assay Z-score: CTB cell viability
[4] = target: full-length P. pyralis luciferase (Photinus pyralis, UniProt P08659, K549A/L550V/N119G/N50D/S548I); type: cell-based; conditions: CC_NCI screening, normalized to on-plate 0.3% DMSO controls; for Luciferase Assay % Lum: full-length luciferase counter-screen luminescence; for Luciferase Assay Z-score: full-length luciferase counter-screen
full-length P. pyralis luciferase, sequence (P08659 whole entry N50D/N119G/S548I/K549A/L550V, looked up): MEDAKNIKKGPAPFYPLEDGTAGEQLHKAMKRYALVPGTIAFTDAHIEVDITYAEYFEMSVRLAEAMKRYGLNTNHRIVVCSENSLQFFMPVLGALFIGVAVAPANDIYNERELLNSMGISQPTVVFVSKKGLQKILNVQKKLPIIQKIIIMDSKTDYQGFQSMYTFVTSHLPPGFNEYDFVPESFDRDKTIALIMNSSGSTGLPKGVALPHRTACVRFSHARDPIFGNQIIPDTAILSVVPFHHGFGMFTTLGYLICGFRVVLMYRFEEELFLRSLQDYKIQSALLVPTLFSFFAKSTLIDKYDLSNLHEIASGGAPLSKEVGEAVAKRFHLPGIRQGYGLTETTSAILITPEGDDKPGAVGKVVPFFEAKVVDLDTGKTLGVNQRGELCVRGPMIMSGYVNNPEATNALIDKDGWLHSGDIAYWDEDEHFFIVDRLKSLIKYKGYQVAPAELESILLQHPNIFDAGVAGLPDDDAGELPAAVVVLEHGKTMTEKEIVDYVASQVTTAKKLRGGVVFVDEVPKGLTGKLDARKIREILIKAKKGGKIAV

[5] = CC_NCI screening, CTB cell viability fluorescence, normalized to on-plate 0.3% DMSO controls
[6] = CC_NCI screening, normalized to on-plate 0.3% DMSO controls

SMILES | Split Luciferase Assay % Lum Set 1 [1] [%] | Split Luciferase Assay %Lum Set 2 [1] [%] | Split Luciferase Assay Z-score Set 1 [1] | Split Luciferase Assay Z-score Set 2 [1] | Split Luciferase Assay %Lum Avg [1] [%] | Toxicity Assay Z-score (Clone V cells [2]) | Toxicity Assay % Fluor (Clone V cells [3]; [5]) [%] | Luciferase Assay % Lum [4] [%] | Luciferase Assay Z-score [4] | Toxicity Assay % Fluor (Clone V cells [3]) [%] | Toxicity Assay Z-score (Clone V cells [3]; [6])
CC1(C)CCC(c2ccc(Cl)cc2)=C(CN2CCN(c3ccc(C(=O)NS(=O)(=O)c4ccc(N[C@H](CCN5CCOCC5)CSc5ccccc5)c(S(=O)(=O)C(F)(F)F)c4)cc3)CC2)C1 [ABT-263] | 93.82 | 71.78 | -0.50 | -2.30 | 82.80 | -0.99 | 92.92 | 103.24 | 0.42 | – | –
CN(C)CC[C@H](CSc1ccccc1)Nc1ccc(S(=O)(=O)NC(=O)c2ccc(N3CCN(Cc4ccccc4-c4ccc(Cl)cc4)CC3)cc2)cc1[N+](=O)[O-] [ABT-737] | 132.95 | 126.92 | 2.66 | 2.19 | 129.94 | 1.03 | 107.35 | 95.47 | -0.58 | – | –
CNCc1ccc(-c2[nH]c3cc(F)cc4c3c2CCNC4=O)cc1 [AG014699] | 65.55 | 67.62 | -2.78 | -2.63 | 66.59 | -0.48 | 96.59 | 82.53 | -2.24 | – | –
CNC(=O)c1ccccc1Sc1ccc2c(/C=C/c3ccccn3)n[nH]c2c1 [AXITINIB] | 107.95 | 91.55 | 0.64 | -0.69 | 99.75 | -1.18 | 91.58 | 40.56 | -7.61 | – | –
C[C@]12CC[C@H](O)CC1=CC[C@@H]1[C@@H]2CC[C@]2(C)C(c3cccnc3)=CC[C@@H]12 [Abiraterone] | 115.56 | 148.76 | 1.26 | 3.97 | 132.16 | -2.19 | 84.37 | 85.19 | -1.90 | – | –
Oc1ncnc2[nH]ncc12 [Allopurinol] | 106.86 | 95.71 | 0.55 | -0.35 | 101.29 | -1.65 | 88.22 | 96.95 | -0.39 | – | –
CC[C@@H]1C(=O)N(C)c2cnc(Nc3ccc(C(=O)NC4CCN(C)CC4)cc3OC)nc2N1C1CCCC1 [BI 2536, reference compound] | – | – | – | – | – | -0.11 | – | – | – | 99.22 | –
C#Cc1cccc(Nc2ncnc3cc(OCCOC)c(OCCOC)cc23)c1 [Erlotinib hydrochloride] | 118.82 | 73.86 | 1.52 | -2.13 | 96.34 | -0.92 | 93.40 | 82.34 | -2.26 | – | –
CNC(=O)c1cc(Oc2ccc(NC(=O)Nc3ccc(Cl)c(C(F)(F)F)c3)c(F)c2)ccn1 [Regorafenib] | 43.81 | 47.85 | -4.54 | -4.24 | 45.83 | – | 88.66 | 83.68 | -2.09 | – | -1.59
CN1CCN(CCOc2cc(OC3CCOCC3)c3c(Nc4c(Cl)ccc5c4OCO5)ncnc3c2)CC1 [SARACATINIB] | 85.12 | 98.83 | -1.20 | -0.10 | 91.97 | – | 108.09 | 107.97 | 1.02 | – | 1.13
CN(N=O)C(=O)N[C@@H](C=O)[C@@H](O)[C@H](O)[C@H](O)CO [Streptozocin] | 130.78 | 124.84 | 2.49 | 2.02 | 127.81 | – | 96.94 | 99.54 | -0.06 | – | -0.43
Cn1nnc2c(C(N)=O)ncn2c1=O [Temozolomide] | 106.86 | 109.23 | 0.55 | 0.75 | 108.05 | – | 84.35 | 99.34 | -0.09 | – | -2.19
COc1cc2c(Nc3ccc(Br)cc3F)ncnc2cc1OCC1CCN(C)CC1 [Vandetanib] | 89.47 | 115.47 | -0.85 | 1.26 | 102.47 | – | 97.46 | 80.83 | -2.46 | – | -0.36
CCCS(=O)(=O)Nc1ccc(F)c(C(=O)c2c[nH]c3ncc(-c4ccc(Cl)cc4)cc23)c1F [Vemurafenib] | 104.69 | 105.07 | 0.38 | 0.41 | 104.88 | – | 86.56 | 93.28 | -0.86 | – | -1.88
O=C(CCCCCCC(=O)Nc1ccccc1)NO [Vorinostat] | 88.38 | 88.43 | -0.94 | -0.94 | 88.40 | – | 101.32 | 97.95 | -0.26 | – | 0.19
O=P(O)(O)C(O)(Cn1ccnc1)P(=O)(O)O [Zoledronic acid] | 100.34 | 119.64 | 0.03 | 1.60 | 109.99 | – | 89.11 | 94.25 | -0.74 | – | -1.52
